Experimental data from BindingDB's records for doi:10.1021/jm030418i (Abbott Laboratories, 2004).

Molecular target: Gonadotropin-releasing hormone receptor (Rattus norvegicus) (UniProt P30969)
Experiment: In vitro binding affinity was determined against rat Luteinizing hormone-releasing hormone (LHRH) receptor cloned in CHO cells

Gonadotropin-releasing hormone receptor (Rattus norvegicus), sequence (P30969 whole entry, looked up): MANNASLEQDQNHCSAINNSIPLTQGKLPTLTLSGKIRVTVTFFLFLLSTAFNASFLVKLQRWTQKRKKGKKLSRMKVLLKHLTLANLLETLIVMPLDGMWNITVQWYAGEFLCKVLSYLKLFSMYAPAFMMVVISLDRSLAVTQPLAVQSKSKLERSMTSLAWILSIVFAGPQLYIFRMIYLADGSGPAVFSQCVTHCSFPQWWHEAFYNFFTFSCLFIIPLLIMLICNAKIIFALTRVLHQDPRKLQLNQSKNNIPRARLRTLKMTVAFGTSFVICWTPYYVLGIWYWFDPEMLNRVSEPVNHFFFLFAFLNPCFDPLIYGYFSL

Work on `CC[C@H]1OC(=O)[C@H](C)[C@@H](OC(=O)N2CCOC2)[C@H](C)[C@@H](OC2O[C@H](C)C[C@H](N(C)C(C)C)[C@H]2O)[C@@](C)(OC)C[C@@H](C)C(=O)[C@H](C)[C@H]2N(CCc3ccc(Cl)cc3)C(=O)O[C@]12C` (stereo partly specified) yielded a Ki of 51 nM.
